The supplement of paper PMC10307832

Key:
Test in all cases: relative viability (nuclei count vs DMSO), 5 days (fraction); higher = more cells survive
[1] = compound: C1=CC=C(C(=C1)C2=CC=C(C=C2)C3=CSC4=C3C(=C(C(=O)N4)C#N)O)O + C[C@]1(O)C[C@@H](c2nc(-c3ccc4ccc(-c5ccccc5)nc4c3)c3c(N)nccn32)C1 [Linsitinib] (partner 1 µM)
Method in brief: (§1)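 Medians of duplicate plates are given as relative viability. That measure is the nuclei count in treated wells divided by the count in vehicle wells. Counts were taken on 4× images of lung cancer cell lines in 1536-well plates, 5 days after pin-tool dosing the day after seeding with one drug alone or a fixed anchor-drug dose plus five library-drug doses (not always all listed) in √10 steps.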

TGX 221 + Navitoclax = compound: CC1=CN2C(=O)C=C(N=C2C(=C1)C(C)NC3=CC=CC=C3)N4CCOCC4 [TGX 221] + CC1(C)CCC(c2ccc(Cl)cc2)=C(CN2CCN(c3ccc(C(=O)NS(=O)(=O)c4ccc(N[C@H](CCN5CCOCC5)CSc5ccccc5)c(S(=O)(=O)C(F)(F)F)c4)cc3)CC2)C1 [Navitoclax] (partner 0.5 µM)
Method in brief: as §1

Ricolinostat + Foretinib = compound: O=C(CCCCCCNC(=O)c1cnc(N(c2ccccc2)c2ccccc2)nc1)NO [Ricolinostat] + COc1cc2c(Oc3ccc(NC(=O)C4(C(=O)Nc5ccc(F)cc5)CC4)cc3F)ccnc2cc1OCCCN1CCOCC1 [Foretinib] (partner 0.25 µM)
Method in brief: as §1

Ricolinostat + Alpelisib = compound: O=C(CCCCCCNC(=O)c1cnc(N(c2ccccc2)c2ccccc2)nc1)NO [Ricolinostat] + Cc1nc(NC(=O)N2CCC[C@H]2C(N)=O)sc1-c1ccnc(C(C)(C)C(F)(F)F)c1 [Alpelisib] (partner 2 µM)
Method in brief: as §1

Cell Line	relative viability ([1]; first compound 0.08 µM)	relative viability ([1]; first compound 0.253 µM)	relative viability ([1]; first compound 0.8 µM)	relative viability ([1]; first compound 2.53 µM)	relative viability ([1]; first compound 8 µM)	relative viability (TGX 221 + Navitoclax; first compound 0.08 µM)	relative viability (TGX 221 + Navitoclax; first compound 0.253 µM)	relative viability (TGX 221 + Navitoclax; first compound 0.8 µM)	relative viability (TGX 221 + Navitoclax; first compound 2.53 µM)	relative viability (TGX 221 + Navitoclax; first compound 8 µM)	relative viability (Ricolinostat + Foretinib; first compound 0.08 µM)	relative viability (Ricolinostat + Foretinib; first compound 0.253 µM)	relative viability (Ricolinostat + Foretinib; first compound 0.8 µM)	relative viability (Ricolinostat + Foretinib; first compound 2.53 µM)	relative viability (Ricolinostat + Alpelisib; first compound 0.08 µM)	relative viability (Ricolinostat + Alpelisib; first compound 0.253 µM)	relative viability (Ricolinostat + Alpelisib; first compound 0.8 µM)	relative viability (Ricolinostat + Alpelisib; first compound 2.53 µM)
LXF-289	0.978	0.961	0.986	1	0.973	0.966	0.967	0.929	0.882	0.945	0.987	0.895	0.947	0.967	0.961	1	1.06	1.01
PC-3 [JPC-3]	1.1	1.06	0.989	0.952	1.09	0.722	0.768	0.847	0.806	0.863	–	0.933	0.969	0.827	0.941	0.996	0.948	0.909
BEN	0.609	0.999	0.93	1.21	0.822	0.0671	0.0617	0.0682	0.0659	0.0557	0.657	0.598	0.483	0.481	0.951	0.901	0.978	0.655
NCI-H1355	0.981	0.746	0.824	0.758	0.625	0.88	0.747	0.764	0.598	0.707	0.953	0.978	0.976	0.873	–	0.847	0.795	0.715
NCI-H441	0.583	0.748	0.617	0.746	0.552	0.494	0.529	0.599	0.998	0.797	–	0.878	0.872	0.921	0.597	0.596	0.803	0.539
EKVX	0.751	1.28	0.883	1.1	0.779	0.926	0.869	0.866	0.908	0.758	0.845	0.846	–	0.725	–	0.883	0.882	0.942
A-427	1.09	1.12	1.11	1.15	1.18	1.05	0.976	0.949	0.935	0.803	–	1.17	0.925	1.14	0.927	1.07	1.09	0.983
NCI-H23	0.614	0.58	0.679	0.603	0.402	0.753	0.763	0.832	0.608	0.713	0.999	0.898	0.97	1.13	0.56	0.644	0.882	0.703
NCI-H596	0.967	1.17	1.13	1.1	0.733	0.996	0.863	0.969	0.902	0.886	0.922	0.825	0.857	0.924	0.429	0.492	0.446	0.463
NCI-H2087	1.14	1.04	0.946	1.08	0.966	0.989	0.898	1.06	0.945	0.952	–	1.09	1.07	1.05	1.14	1.21	0.949	0.999
HCC-78	0.534	0.73	0.551	0.484	0.462	0.654	0.665	–	0.457	0.487	–	0.526	0.553	0.427	–	0.32	0.291	0.192
Calu-6	0.95	1.1	1.06	1.01	0.786	0.853	0.813	0.872	0.753	0.733	0.923	0.93	0.848	0.83	0.91	0.947	1.01	0.878
NCI-H520	0.712	1.08	1.26	1.21	0.829	1.24	0.944	1.03	0.756	0.648	–	0.889	0.89	0.688	–	0.765	0.954	0.852
NCI-H727	0.242	0.238	0.284	0.237	0.237	0.383	0.317	0.491	0.332	0.365	0.746	0.741	0.948	0.884	0.546	0.64	0.759	0.502
NCI-H1734	0.734	0.849	0.882	1.01	0.646	0.809	0.747	0.784	0.698	0.765	0.728	0.85	0.915	0.926	0.469	0.684	0.645	0.721
NCI-H1993	0.617	0.882	0.713	0.709	0.802	0.761	0.848	0.884	0.831	0.82	–	0.893	0.854	0.856	0.619	0.76	0.711	0.73
HCC-827	1.02	1.04	0.995	0.993	0.955	0.951	1.02	1.02	1.05	0.982	0.998	1.06	1.04	0.964	0.615	0.938	0.935	0.985
NCI-H1437	0.668	1.37	1.03	1.21	0.81	1.05	1.07	1.11	1.07	0.893	1.12	1.28	1.17	1.05	0.888	1.03	0.907	0.722
